Values of other authors, collected in US20120087953A1, “PHARMACEUTICAL COMPOSITIONS OF ACTIVE PHARMACEUTICAL INGREDIENT COMPRISING SULPHONYLUREA MOIETY WITH EXCELLENT DISSOLUTION PROPERTIES” (LEK PHARMACEUTICALS D.D., priority 2009, published 2012).

Conditions: acidic medium, 37° C.

For CCC1=C(C)CN(C(=O)NCCc2ccc(S(=O)(=O)NC(=O)N[C@H]3CC[C@H](C)CC3)cc2)C1=O [glimepiride], the solubility is given as “less than 0.001 mg/mL”.
